Drawing on US8629157B2, “Pyrrolidine compounds which modulate the CB2 receptor” (Boehringer Ingelheim International GmbH, priority 2009, dated 2014), this text covers EC50 for 36 compounds.

What is called EC50 is the concentration that produces a half-maximal response.

Structures are written as SMILES.

In the first test the target is human CB2R (Homo sapiens, UniProt P34972). Description: CB2R mediated modulation of cAMP synthesis. It counts as cell-based.
Chain of human CB2R (P34972 whole entry): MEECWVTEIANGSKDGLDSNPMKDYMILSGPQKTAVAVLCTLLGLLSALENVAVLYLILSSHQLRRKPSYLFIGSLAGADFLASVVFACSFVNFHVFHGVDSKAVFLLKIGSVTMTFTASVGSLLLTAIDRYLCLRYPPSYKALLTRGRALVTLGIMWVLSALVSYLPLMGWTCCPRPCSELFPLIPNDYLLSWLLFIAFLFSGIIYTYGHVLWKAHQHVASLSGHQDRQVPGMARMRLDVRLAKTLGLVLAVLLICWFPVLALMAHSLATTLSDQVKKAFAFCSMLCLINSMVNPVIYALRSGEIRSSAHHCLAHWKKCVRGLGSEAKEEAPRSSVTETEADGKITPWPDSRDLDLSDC
Settings: not given
As for the experimental part: B. CB2R Mediated Modulation of cAMP Synthesis:
Compounds of the invention were evaluated for their CB2 agonist or inverse agonistic activity in accordance with the following experimental method.
CHO cells expressing human CB2R (Euroscreen) were plated at a density of 5000 cells per well in 384 well plates and incubated overnight at 37° C. After removing the media, the cells were treated with test compounds diluted in stimulation buffer containing 1 mM IBMX, 0.25% BSA and 10 uM Forskolin. The assay was incubated for 30 minutes at 37° C. Cells were lysed and the cAMP concentration was measured using DiscoverX-XS cAMP kit, following the manufacturer's protocol. In this setting, agonists will decrease forskolin induced production of cAMP while inverse agonists will further increase forskolin induced production of cAMP. EC50 of agonists were calculated as follows. The maximal amount of cAMP produced by forskolin compared to the level of cAMP inhibited by 1 uM CP55940 is defined as 100%. […] Data was analyzed using a four-parameter logistic model. (Model 205 of XLfit 4.0).
Take `CCc1sc(NC(=O)[C@@H]2CCCN2CC2CCOCC2)nc1-c1ccccc1` [(S)-1-(Tetrahydro-pyran-4-ylmethyl)-pyrrolidine-2-carboxylic acid (5-ethyl-4-phenyl-thiazol-2-yl)-amide]: the midpoint of the response, the EC50, lay at 10.9 nM.
In the case of `CC(C)(C)c1csc(NC(=O)[C@@H]2CCCN2c2ncc(C(F)(F)F)cc2Cl)n1` [(S)-1-(3-Chloro-5-trifluoromethyl-pyridin-2-yl)-pyrrolidine-2-carboxylic acid (4-tert-butyl-thiazol-2-yl)-amide], the EC50 was 1.95 nM.
On the same count and under the same terms, to `Cc1cc(N2C(=O)CC[C@H]2C(=O)Nc2cc(C(C)(C)C)no2)ccc1Cl` [(S)-1-(4-Chloro-3-methyl-phenyl)-5-oxo-pyrrolidine-2-carboxylic acid (3-tert-butyl-isoxazol-5-yl)-amide] belongs 23.7 nM; to `CCC(C)c1cc(NC(=O)[C@@H]2CCC(=O)N2c2ccc(C(F)(F)F)cc2)on1` (stereo partly drawn) [(S)-5-Oxo-1-(4-trifluoromethyl-phenyl)-pyrrolidine-2-carboxylic acid (3-sec-butyl-isoxazol-5-yl)-amide], 40.9 nM; to `O=C(Nc1nc(-c2ccccc2)ns1)[C@@H]1C[C@@H](O)CN1CC1CCOCC1` [(2S,4R)-4-Hydroxy-1-(tetrahydro-pyran-4-ylmethyl)-pyrrolidine-2-carboxylic acid (3-phenyl-1,2,4-thiadiazol-5-yl)-amide], 303 nM.
Consider `CC(C)(C)c1cc(NC(=O)[C@@H]2CCC(=O)N2c2ccc(OC(F)(F)F)cc2)no1` [(S)-5-Oxo-1-(4-trifluoromethoxy-phenyl)-pyrrolidine-2-carboxylic acid (5-tert-butyl-isoxazol-3-yl)-amide], for which the EC50 was 132 nM.
In turn, `CCc1sc(NC(=O)[C@@H]2C[C@@H](O)CN2C2CCOCC2)nc1-c1ccccc1` [(2S,4R)-4-Hydroxy-1-(tetrahydro-pyran-4-yl)-pyrrolidine-2-carboxylic acid (5-ethyl-4-phenyl-thiazol-2-yl)-amide] yielded an EC50 of 58.7 nM.
`CC(C)(C)c1nc(NC(=O)[C@@H]2CCCN2c2ccc(Cl)cc2)sc1C#N` [(S)-1-(4-Chloro-phenyl)-pyrrolidine-2-carboxylic acid (4-tert-butyl-5-cyano-thiazol-2-yl)-amide] showed an EC50 of 31.7 nM.
`CC(C)(C)Cc1cc(NC(=O)[C@@H]2CCCN2CC2CC2)on1` [(S)-1-Cyclopropylmethyl-pyrrolidine-2-carboxylic acid [3-(2,2-dimethyl-propyl)-isoxazol-5-yl]-amide] had an EC50 of 22.3 nM.
Compound `CC(C)c1cc(NC(=O)[C@@H]2CCC(=O)N2c2ccc(Cl)cc2)on1` [(S)-1-(4-Chloro-phenyl)-5-oxo-pyrrolidine-2-carboxylic acid (3-isopropyl-isoxazol-5-yl)-amide] had an EC50 of 290 nM.
`Cn1nc(C(C)(C)C)cc1NC(=O)C1CCCN1c1ncc(C(F)(F)F)cc1Cl` (stereo not drawn) [1-(3-Chloro-5-trifluoromethyl-pyridin-2-yl)-pyrrolidine-2-carboxylic acid (5-tert-butyl-2-methyl-2H-pyrazol-3-yl)-amide] yielded an EC50 of 112 nM.
`O=C(Nc1nc(-c2ccc(F)cc2)cs1)[C@@H]1CCCN1c1ccc(Cl)cc1` [(S)-1-(4-Chloro-phenyl)-pyrrolidine-2-carboxylic acid [4-(4-fluoro-phenyl)-thiazol-2-yl]-amide] had an EC50 of 115 nM.
Same read-out and setting: the value for `Cc1nc(N2C(=O)CC[C@H]2C(=O)Nc2cc(C(C)(C)C)no2)ccc1F` [(S)-1-(5-Fluoro-6-methyl-pyridin-2-yl)-5-oxo-pyrrolidine-2-carboxylic acid (3-tert-butyl-isoxazol-5-yl)-amide] was 74.4 nM; that for `Cc1cc(N2C(=O)CC[C@H]2C(=O)Nc2cc(C(C)(C)C)on2)ccc1Cl` [(S)-1-(4-Chloro-3-methyl-phenyl)-5-oxo-pyrrolidine-2-carboxylic acid (5-tert-butyl-isoxazol-3-yl)-amide] was 59.4 nM; that for `CC(C)c1cc(NC(=O)[C@@H]2CCC(=O)N2c2ccc(C(F)(F)F)cc2)on1` [(S)-5-Oxo-1-(4-trifluoromethyl-phenyl)-pyrrolidine-2-carboxylic acid (3-isopropyl-isoxazol-5-yl)-amide] was 41.8 nM.
With `O=C(NCCN1CCN(c2nccc(C(F)(F)F)n2)CC1)[C@@H]1CCCN1c1ccc(Cl)cc1`, the EC50 stood at 381 nM.
`O=C(Nc1nc(C2CC2)cs1)[C@@H]1CCCN1c1ccc(Cl)cc1` [(S)-1-(4-Chloro-phenyl)-pyrrolidine-2-carboxylic acid (4-cyclopropyl-thiazol-2-yl)-amide] registered an EC50 of 36.1 nM.
In turn, `CC(C)(C)c1nnc(NC(=O)[C@@H]2CCCN2C2CCCC2)s1` [(S)-1-Cyclopentyl-pyrrolidine-2-carboxylic acid (5-tert-butyl-1,3,4-thiadiazol-2-yl)-amide] yielded an EC50 of 165 nM.
The same measure, in the same setting: to `CC(C)(C)c1csc(NC(=O)[C@@H]2CCCN2C2CCOCC2)n1` [(S)-1-(Tetrahydro-pyran-4-yl)-pyrrolidine-2-carboxylic acid (4-tert-butyl-thiazol-2-yl)-amide] belongs 279 nM.
On the same count and under the same terms, to `CC(C)(C)Cc1cc(NC(=O)[C@@H]2CCCN2C2CCCC2)on1` [(S)-1-Cyclopentyl-pyrrolidine-2-carboxylic acid [3-(2,2-dimethyl-propyl)-isoxazol-5-yl]-amide] belongs 113 nM.
`CC(C)(C)c1nnc(NC(=O)[C@@H]2CCCN2C2CCC2)s1` [(S)-1-Cyclobutyl-pyrrolidine-2-carboxylic acid (5-tert-butyl-1,3,4-thiadiazol-2-yl)-amide] had an EC50 of 255 nM.
`CC(C)(C)c1cc(NC(=O)[C@@H]2CCC(=O)N2c2ccc(Cl)c(F)c2)on1` [(S)-1-(4-Chloro-3-fluoro-phenyl)-5-oxo-pyrrolidine-2-carboxylic acid (3-tert-butyl-isoxazol-5-yl)-amide] displayed an EC50 of 14.2 nM.
In the case of `CCC(C)c1ccc(NC(=O)[C@@H]2CCC(=O)N2c2ncc(C(F)(F)F)cc2Cl)cc1` (stereo partly drawn), the EC50 amounted to 28.1 nM.
With `CC(C)(C)c1cc(NC(=O)[C@@H]2CCCN2S(=O)(=O)c2ccc(Cl)cc2)no1` [(S)-1-(4-Chloro-benzenesulfonyl)-pyrrolidine-2-carboxylic acid (5-tert-butyl-isoxazol-3-yl)-amide], the EC50 turned out to be 284 nM.
`CC(C)(C)Cc1cc(NC(=O)[C@@H]2CCCN2CC2CCOCC2)on1` [(S)-1-(Tetrahydro-pyran-4-ylmethyl)-pyrrolidine-2-carboxylic acid [3-(2,2-dimethyl-propyl)-isoxazol-5-yl]-amide] displayed an EC50 of 3.46 nM.
The same measure, in the same setting: the value for `CC(C)(C)c1cc(NC(=O)[C@@H]2CCC(=O)N2c2ncc(C(F)(F)F)cc2Cl)no1` [(S)-1-(3-chloro-5-trifluoromethyl-pyridin-2-yl)-5-oxo-pyrrolidine-2-carboxylic acid (5-tert-butyl-isoxazol-3-yl)-amide] was 6.5 nM.
`CC(C)(C)c1cc(NC(=O)[C@@H]2C[C@@H](O)CN2C2CCCC2)on1` [(2S,4R)-1-Cyclopentyl-4-hydroxy-pyrrolidine-2-carboxylic acid (3-tert-butyl-isoxazol-5-yl)-amide] gave an EC50 of 61.9 nM.
For the compound `O=C(Nc1nc(-c2ccccc2)ns1)[C@@H]1C[C@H](O)CN1c1ccc(C(F)(F)F)cn1` [(2S,4S)-4-Hydroxy-1-(5-trifluoromethyl-pyridin-2-yl)-pyrrolidine-2-carboxylic acid (3-phenyl-1,2,4-thiadiazol-5-yl)-amide], the EC50 is 18.4 nM.
Regarding `O=C(Nc1nc(C(F)(F)F)cs1)[C@@H]1CCCN1c1ccc(Cl)cc1` [(S)-1-(4-Chloro-phenyl)-pyrrolidine-2-carboxylic acid (4-trifluoromethyl-thiazol-2-yl)-amide], the EC50 was 89.2 nM.
For `O=C(NCCC1CCCCC1)[C@@H]1CCC(=O)N1c1ccc(Cl)cc1` [(S)-1-(4-Chloro-phenyl)-5-oxo-pyrrolidine-2-carboxylic acid (2-cyclohexyl-ethyl)-amide], the EC50 stood at 334 nM.
The same measure, in the same setting: to `CC(C)(C)c1cc(NC(=O)[C@@H]2CCC(=O)N2c2ccc([N+](=O)[O-])cc2)no1` [(S)-1-(4-nitro-phenyl)-5-oxo-pyrrolidine-2-carboxylic acid (5-tert-butyl-isoxazol-3-yl)-amide] belongs 21.1 nM.
For `CC(=O)N1CCC(CNC(=O)[C@@H]2CCCN2c2ccc(Cl)cc2)CC1` [(S)-1-(4-Chloro-phenyl)-pyrrolidine-2-carboxylic acid (1-acetyl-piperidin-4-ylmethyl)-amide], the midpoint of the response, the EC50, lay at 0.015 nM.
For `COCC(C)(C)c1cc(NC(=O)[C@@H]2C[C@@H](O)CN2c2ccc(Cl)cc2)no1` [(2S,4R)-1-(4-Chloro-phenyl)-4-hydroxy-pyrrolidine-2-carboxylic acid [5-(2-methoxy-1,1-dimethyl-ethyl)-isoxazol-3-yl]-amide], the EC50 was 80.9 nM.

The same test, now with this note: CHO cells expressing human CB2R; inhibition of forskolin-stimulated cAMP synthesis; mean; read-out: CB2 CAMP @ EC50 nM (mean).
Consider `O=C(Nc1nc2cc(Cl)ccc2[nH]1)[C@@H]1CCC(=O)N1c1ccc(Cl)cc1` [(S)-1-(4-Chloro-phenyl)-5-oxo-pyrrolidine-2-carboxylic acid (5-chloro-1H-benzimidazol-2-yl)-amide], for which the EC50 was determined as 255 nM.
Same read-out and setting: to `CC(C)(C)c1cc(NC(=O)[C@@H]2CCCN2c2ncccn2)on1` [(S)-1-Pyrimidin-2-yl-pyrrolidine-2-carboxylic acid (3-tert-butyl-isoxazol-5-yl)-amide] belongs 109 nM; to `CC(C)(C)OC(=O)CCN1CCC[C@H]1C(=O)Nc1cc(C(C)(C)C)no1` [3-[(S)-2-(3-tert-Butyl-isoxazol-5-ylcarbamoyl)-pyrrolidin-l-yl]-propionic acid tert-butyl ester], 20 nM.
